The results in this text go back to patent US5643926A, “Pyrazolidinone CCK and gastrin antagonists and pharmaceutical formulations thereof” (priority 1994, dated 1997).

What is called IC50 is the concentration at which inhibition is half-maximal. A lower IC50 goes with greater potency in that assay. As usually defined, the inhibition is the share of the control response that was lost under treatment.

Data set [1] deals with T1, CCK receptor, mouse brain membranes (Mus musculus, UniProt P56481).
T1 construct: from tissue; host or cells: forebrain membranes of male CF-1 mice
T1 sequence (P56481 1-453): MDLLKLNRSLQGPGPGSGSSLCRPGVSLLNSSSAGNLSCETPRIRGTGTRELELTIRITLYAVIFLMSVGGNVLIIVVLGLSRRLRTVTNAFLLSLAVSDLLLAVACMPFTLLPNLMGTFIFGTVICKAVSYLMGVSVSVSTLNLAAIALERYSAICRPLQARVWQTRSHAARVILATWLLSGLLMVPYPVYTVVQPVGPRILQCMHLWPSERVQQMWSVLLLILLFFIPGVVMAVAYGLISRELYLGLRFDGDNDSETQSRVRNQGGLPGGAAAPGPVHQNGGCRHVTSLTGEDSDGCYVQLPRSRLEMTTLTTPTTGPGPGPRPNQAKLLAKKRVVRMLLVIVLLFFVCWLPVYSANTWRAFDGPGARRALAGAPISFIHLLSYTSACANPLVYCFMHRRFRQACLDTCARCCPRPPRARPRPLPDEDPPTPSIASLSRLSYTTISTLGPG
Briefly: Brain CCK receptor binding (displacement of 125I-CCK-8 sulfate, mouse brain membranes). On the procedure:
(§1) Test Procedures for CCK and Gastrin Receptor Binding (IC50)
Brain CCK receptor binding was performed using mouse brain membranes according to the method of Chang and Lotti (Proc. Natl. Acad. Sci. 83: 4923-4926, 1986). Male CF-1 mice, 23-25 g were sacrificed by cervical dislocation, the forebrain removed and placed in ice cold 50 mM Tris buffer, pH 7.4. The tissue was homogenized in 100 volumes of the Tris buffer with a Brinkman Polytron or Tekmar Tissumizer and then centrifuged at 40,000 g for 10 min. Pellets were resuspended in Tris buffer, centrifuged as above and then resuspended in 100 volumes of assay buffer, pH 6.5 (20 mM N-2-hydroxyethyl-piperazine-N'-2-ethane sulfonic acid (HEPES), 1 mM ethylene glycol bis(2-aminoethyl ether-N,N,N',N'-tetraaceticacid) (EGTA), 5 mM MgCl2, 130 mM NaCl, and 0.25 mg/ml bacitracin). The binding assay consisted of 50 μL of compound (or buffer for total binding), 50 μL of ^125 I-CCK-8 sulfate (20 pM) (Amersham IM-159), 200 μL of assay buffer and 200 μL of homogenate (80-120 μg protein). The samples were incubated at room temperature (25°) for 2 hours, and they were then filtered through GF/B glass fiber filters (soaked in wash buffer for 2 hours before use) using a 48 well Brandel cell harvester designed for receptor binding. The filters were washed twice with 3 ml of 50 mM Tris buffer, pH 7.4, containing 0.01% BSA and then counted for radioactivity in plastic tubes with a Micromedic 10/600 automatic gamma counter.
Compounds were dissolved in dimethyl sulfoxide (DMSO) at a concentration of 10 mM and then further diluted with assay buffer. The concentration of DMSO in the incubation was 0.1% or less and had no effect on the assay at that level. IC-50 values of displacement curves were determined using 7 concentrations of compound and were calculated using the ALLFIT computer program of DeLean, Munson and Rodbard (Am. J. Physiol. 235: E97-E102, 1978). Non-specific binding was determined as the displacement of the radioligand by 100 nM CCK-8 sulfate.
Table III below summarizes representative CCK and gastrin-binding tests results for exemplified compounds in accordance with this invention.
For orientation: Loss of bound radioactivity is the signal in a displacement assay; it reports binding, not function.

Data set [2] deals with T2, peripheral type CCK receptors in rat pancreas (Rattus norvegicus, UniProt P30551).
T2 construct: Pancreas was obtained from male Sprague-Dawley rats; from tissue; host or cells: pancreas membranes of male Sprague-Dawley rats
T2 sequence (P30551 1-444): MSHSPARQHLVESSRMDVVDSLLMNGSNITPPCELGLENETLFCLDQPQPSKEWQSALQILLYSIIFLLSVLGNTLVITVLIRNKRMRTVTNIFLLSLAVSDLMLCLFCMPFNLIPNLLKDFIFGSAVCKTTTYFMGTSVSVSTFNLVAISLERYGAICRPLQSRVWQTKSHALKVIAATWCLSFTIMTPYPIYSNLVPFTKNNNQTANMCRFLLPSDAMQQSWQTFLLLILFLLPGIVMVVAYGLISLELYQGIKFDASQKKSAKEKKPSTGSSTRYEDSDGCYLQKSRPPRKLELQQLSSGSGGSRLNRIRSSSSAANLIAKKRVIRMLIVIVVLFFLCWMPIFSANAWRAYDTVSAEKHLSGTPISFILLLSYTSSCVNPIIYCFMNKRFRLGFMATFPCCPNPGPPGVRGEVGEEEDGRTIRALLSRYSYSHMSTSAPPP
The data set is described as follows: Binding to peripheral type CCK receptors in rat pancreas (displacement of 3H-L-364,718). The following applies: read-out: Pancreas CCK receptor binding, Percent Inhibition at 10 μM. On the procedure:
as §1
Binding to peripheral type CCK receptors in rat pancreas was done according to the method of Chang et al. (Mol. Pharmacol. 30: 212-217, 1986) using ^3 H-L364, 718. Pancreas was obtained from male Sprague-Dawley rats, 150-200 g, after decapitation, and dissected free from adipose and connective tissue. The tissue was homogenized in 30 volumes of 50 mM Tris buffer, pH 7.4 and centrifuged at 40,000 g for 10 min. The tissue pellet was washed by resuspension and centrifugation as described above. The final pellet was suspended in 500 volumes of assay buffer (50 mM Tris buffer, pH 7.4, 5 mM MgCl2, 0.14 mg/ml bacitracin, and 5 mM dithiothreitol) to give a protein concentration of 30-60 μg/200 μl . Reagent volumes for the assay were the same as those used for CCK binding to brain membranes. Tritium labeled L-364,718 (Dupont NEN, NET-971) was used as the ligand at a concentration of 0.4-0.6 nM. The samples were incubated 1 hour at room temperature and then filtered as described for the CCK-brain receptor. Scintillation cocktail was added to the filters which were counted for radioactivity using a Micromedic Taurus automatic liquid scintillation counter.
Compound samples were prepared and IC-50 values were determined as described for the CCK-brain experiments. […]

The target of data set [3] is T3, gastrin receptor, guinea pig stomach mucosal membranes (Cavia porcellus, UniProt H0VZC5).
T3 construct: Guinea pig stomach fundus was obtained from male Hartley guinea pigs; from tissue; host or cells: stomach fundus mucosal membranes of male Hartley guinea pigs
T3 sequence (H0VZC5 1-426): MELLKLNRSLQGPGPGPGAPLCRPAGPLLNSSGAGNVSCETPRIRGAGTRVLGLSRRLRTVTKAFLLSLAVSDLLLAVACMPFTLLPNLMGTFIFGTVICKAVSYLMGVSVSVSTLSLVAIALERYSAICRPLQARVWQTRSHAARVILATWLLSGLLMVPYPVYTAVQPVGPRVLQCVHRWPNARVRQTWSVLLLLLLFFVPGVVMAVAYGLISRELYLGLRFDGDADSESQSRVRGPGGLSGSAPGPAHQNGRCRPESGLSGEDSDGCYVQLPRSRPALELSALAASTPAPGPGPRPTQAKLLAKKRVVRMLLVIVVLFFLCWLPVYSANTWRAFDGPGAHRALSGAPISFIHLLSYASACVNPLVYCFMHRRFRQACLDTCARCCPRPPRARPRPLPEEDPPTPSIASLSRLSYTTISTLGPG
Briefly: Gastrin binding to guinea pig stomach mucosal membranes (displacement of 125I-gastrin I). The settings on record: guinea pig gastric mucosa. On the procedure: as §1
The method used for gastrin binding to guinea pig stomach mucosal membranes was similar to that described by Takeuchi, Speir and Johnson (Am. J. Physiol. 237(3): E284-E294, 1979). Guinea pig stomach fundus was obtained from male Hartley guinea pigs, 300-350 g, and the mucosa was scraped off with a glass slide. The mucosa was homogenized in 50 mM Tris buffer, pH 7.4, containing 1 mM phenylmethanesulfonyl fluoride using a Dounce glass homogenizer, and the suspension was centrifuged at 40,000 g for 10 min. The resulting pellet was resuspended and centrifuged once more, the final pellet was then suspended in 100 ml assay buffer per 1 guinea pig stomach to give a protein concentration of 200-300 μg/200 μl. The assay buffer consisted of 50 mM Tris buffer, pH 7.4, 5 mM MgCl2, 0.14 mg/ml bacitracin, and 1 μg/ml each of leupeptin, chymostatin, aprotinin and pepstatin. Reagent volumes for the assay were the same as those used for CCK binding to brain membranes. […] The samples were incubated 3 hours at room temperature and filtered and counted as described for CCK binding to brain membranes. Compound samples were prepared and IC-50 values were determined as described for the CCK-brain receptor binding. Non-specific binding was determined using 100 nM gastrin I (human synthetic from Sigma Chemical Co.). […]

Data set [4] can be described thus: Titration pKa. The settings on record: 2:1 DMF:H2O as solvent. It counts as physicochemical. An excerpt: Tetrahydrofuran (THF) was dried by distillation from sodium/benzophenone.

Take `O=C1NN(c2nc3c(Cl)c(Cl)ccc3s2)[C@@H](c2ccccc2)[C@@H]1c1ccccc1` (relative stereo) [Example 86]: the IC50 in data set [1] is 1100 nM. With `O=C1NN(C(=O)Nc2ccc(C(F)(F)F)cc2)C(c2ccccc2Cl)C1c1ccccc1` (centres unmarked) [Example 110], the inhibition at 10 µM in data set [2] stood at 47%.

Regarding “1-[(4-Bromophenyl)aminocarbonyl]-2-(O-t-butyl-carboxymethyl)-4,5-diphenyl-3-pyrazolidinone and 1-[(4-bromophenyl)aminocarbonyl]-3-(O-t-butylcarboxymethoxy)-4,5-diphenyl- 2-pyrazoline [Example 11]”, the “Brain CCK receptor binding, Percent Inhibition at 10 μM” value in data set [1] (at 10 μM) is listed as 67%. On to `O=C1NN(C(=O)Nc2ccc3ccccc3c2)[C@@H](c2ccccc2)[C@@H]1c1ccccc1` (relative stereo) [Example 91], for which the IC50 worked out at 10 nM in data set [1] and 62 nM in data set [3]. Take “1-[(4-Bromophenyl)aminocarbonyl]-2-carboxymethyl-4,5-diphenyl-3-pyrazolidinone and 1-[(4-bromophenyl)aminocarbonyl]-3-carboxymethoxy-4,5-diphenyl-2-pyrazoline [Example 12]”: in data set [4], the “titration pKa” value is recorded as 4.8. `O=C(O)CN1C(=O)[C@H](c2ccccc2)[C@@H](c2ccccc2)N1C(=O)Nc1ccc(Br)cc1` (relative stereo) [Example 12 (N-), 1-[(4-Bromophenyl)aminocarbonyl]-2-carboxymethyl-4,5-diphenyl-3-pyrazolidinone] registered an IC50 in data set [1] of 1000 nM. For `O=C1NN(C(=O)Cc2ccc(C(F)(F)F)cc2)[C@@H](c2ccccc2)[C@@H]1c1ccccc1` (relative stereo) [Example 77], the inhibition at 10 µM in data set [2] was determined as 4%.
